We go through two molecules from patent US8163796B1, “Treatment of cancer by oxidation-reduction potentiation of cancerostatic dicarbonyls” (BioChemical Solutions, LLC, priority 2009, dated 2012).

Data set [1] has as its system murine B cell lymphoma cell line (A20;ATCC#TIB-208). As to the kind of experiment: Tritiated thymidine incorporation (growth rate) of cultured lymphoma cells. It counts as cell-based. Particulars: for Mean, cpm (tritiated thymidine count, growth rate): 12 hours, triplicates. On the procedure:
The effect of methylglyoxal concentration on the growth rate of cultured lymphoma cells is shown below. The cells used were murine B cell lymphoma cell line (A20;ATCC#TIB-208). Cells labeled A20 were untreated cells that were passed through their regular media. A20 Methylglyoxal Reversed cells had undergone 3 passages in media containing 1 mM methylglyoxal followed by 3 passages in regular media before use. A20 Methylglyoxal P6 cells had 6 passages in media containing 1 mM methylglyoxal before use. At the start of the experiment harvested cells were incubated with DNA precursor tritiated thymidine in media containing the various concentrations of methylglyoxal for 12 hours, then harvested and counted in a scintillation counter. The count data in cpm reflect the growth rate of the cells in the presence of the various methylglyoxal concentrations. Relevant data from this in vitro study are presented here.
In general terms: Dividing cells build labelled thymidine or BrdU into new DNA.

Data set [2] deals with cancer cells. Particulars: cited from earlier work.
For data set [3] the following is noted: mice, single oral dose of 200 mg; cited from earlier work.
For data set [4] the following is noted: oral administration; cited from earlier work.
The conditions of data set [5]: (IV) administration at 3.0 grams/m^2; cited from earlier work.

SMILES strings stand for the structures.

With `CC(=O)C=O` [Methylglyoxal, methylglyoxal], the “Survival of lymphoma cells on passage in methylglyoxal” value in data set [1] (1 mM methylglyoxal in media, 3 or 6 passages) is on record as “able to survive”. For the same molecule, in data set [1] (1.2 mM methylglyoxal, all three A20 cell groups), the “Effect on growth rate” value is reported as “severely slowed their growth rate”. For the same molecule, the “Growth rate relative to the controls” value in data set [1] (2.5 mM and 5.0 mM methylglyoxal, all three A20 cell groups) was “less than 0.1 % of the controls”. Further, the “Mean, cpm (tritiated thymidine count, growth rate)” value (“Mean, cpm” for short) was 36,001 cpm in data set [1] (A20 1 mM Methylglyoxal P6 cells, 0.3 mM methylglyoxal); 35,157 cpm in data set [1] (A20 1 mM Methylglyoxal P6 cells, 0.6 mM methylglyoxal); 1,470 cpm in data set [1] (A20 1 mM Methylglyoxal P6 cells, 1.2 mM methylglyoxal); 24 cpm in data set [1] (A20 1 mM Methylglyoxal P6 cells, 2.5 mM methylglyoxal); 9 cpm in data set [1] (A20 1 mM Methylglyoxal P6 cells, 5.0 mM methylglyoxal); 34,220 cpm in data set [1] (A20 1 mM Methylglyoxal Reversed P3 cells, 0.3 mM methylglyoxal). For the same molecule, the “Mean, cpm” value is reported as 33,927 cpm in data set [1] (A20 1 mM Methylglyoxal Reversed P3 cells, 0.6 mM methylglyoxal); 587 cpm in data set [1] (A20 1 mM Methylglyoxal Reversed P3 cells, 1.2 mM methylglyoxal); 7 cpm in data set [1] (A20 1 mM Methylglyoxal Reversed P3 cells, 2.5 mM methylglyoxal); 12 cpm in data set [1] (A20 1 mM Methylglyoxal Reversed P3 cells, 5.0 mM methylglyoxal); 36,289 cpm in data set [1] (A20 untreated cells, 0.3 mM methylglyoxal); 30,119 cpm in data set [1] (A20 untreated cells, 0.6 mM methylglyoxal). For the same molecule, the “Mean, cpm” value turned out to be 275 cpm in data set [1] (A20 untreated cells, 1.2 mM methylglyoxal); 6 cpm in data set [1] (A20 untreated cells, 2.5 mM methylglyoxal); 8 cpm in data set [1] (A20 untreated cells, 5.0 mM methylglyoxal). Moreover, the “Development of resistance to methylglyoxal” value in data set [1] (A20 Methylglyoxal Reversal and A20 Methylglyoxal P6 cells, passaged in 1 mM methylglyoxal) was “no evidence”. Besides, the “Levels causing protein synthesis inhibition, arrested cell growth and induced apoptosis” value in data set [2] (cancer cells, normal cells were not affected) was 1 to 3 mM. In addition, in data set [2] (cultured cancer cells or mice inoculated intraperitoneally with cancer cells), the “Concentration required to achieve 95-100% cell death” value is recorded as roughly 3 mM. Besides, the “Time of peak blood concentration” value in data set [3] was 4 h. Moreover, the Oral uptake result in data set [4] is on record as “less than 5%”.
Turning to `CCCCS(=N)(=O)CCC(N)C(=O)O` (stereo not drawn) [buthioinine sulfoximine, buthionine sulfoximine], the Deleterious effects result in data set [5] is recorded as “no deleterious effects”.
